Measurements: patent US20260355142A1, “AMORPHOUS OTE[…] COMPOSITIONS AND USES THEREOF AND DOSAGE REGIMENS FOR OTENAPROXESUL” (ANTIBE THERAPEUTICS INC., priority 2022, published 2026)

Key:
[1] = H2S release / formulation stability in simulated gastric fluid; conditions: SGF, 1 mg/ml, 37° C., 5% CO2
Method: Assay design: 1 mg of exemplary ASD no. 1 and crystalline otenaproxesul were weighed in separate glass vials. SGF was added to prepare a 1 mg/ml solution which was incubated at 37° C. with 5% CO2. 120 μl was removed at 0, 0.5, 1, 2, 3, 4 and 8 hrs and quenched in DPD and FeCl3 solutions. A blank and 10 mM stock was also analyzed. The methylene blue was analyzed using HPLC.
As H2S is volatile in the acidic form the calibration curve was not plotted, however H2S release was compared to T0.

[2] = tested on: osteoarthritis of the knee; assay: Phase 2b study, change in WOMAC subscale scores in osteoarthritis of the knee; format: in vivo, human; conditions: for WOMAC pain, stiffness and DPDA subscale scores: Baseline to Day 14
Method: This study evaluated the efficacy of a 14-day dosing regimen of crystalline otenaproxesul at doses of 150 mg, 200 mg and 250 mg compared to placebo in reducing osteoarthritis knee pain (a chronic pain condition) as measured by changes in the post-treatment Western Ontario and McMaster Universities Osteoarthritis Index (WOMAC) subscale pain score relative to each patient's pretreatment baseline WOMAC assessment. In patients with bilateral knee osteoarthritis, the most painful knee (index knee) or if in both knees of equal pain, then 1 index knee was noted and has been used for the WOMAC assessments throughout the study. The three doses were selected based on state-of-the-art knowledge of efficacy and safety for otenaproxesul at the time of the trial.
This study was a double-blind, placebo-controlled Phase 2B study that explored 3 different doses (150 mg, 200 mg, and 250 mg) of orally administered crystalline otenaproxesul in male and female patients diagnosed with osteoarthritis of the knee. Patients were randomly assigned in a 2:2:1:1 allocation ratio to otenaproxesul 250 mg, 200 mg, 150 mg, or placebo.
Study visits occurred on Day 1, Day 4, and Day 14 of the 14-day treatment phase and included WOMAC evaluations, blood samples for thromboxane B2 TXB2 and pharmacokinetic (PK) testing. The safety of otenaproxesul was evaluated through monitoring for adverse events (AEs), changes in physical examinations, vital signs measurements, and clinical laboratory evaluations.
The efficacy of treatment with otenaproxesul was assessed by measuring the change in the WOMAC VAS version 3.1 subscale pain, stiffness, and difficulties performing daily activities (DPDA) scores after 14 days relative to each patient's pretreatment baseline WOMAC score.
All patients who received 1 dose of study drug (otenaproxesul or placebo) and had at least 1 post-baseline WOMAC pain subscale score observation were included in the primary population for the analysis of efficacy (modified-intent-to-treat population [mITT]). Patients who met the criteria for the primary efficacy analyses and had no major protocol violations that could have impacted the assessment of efficacy (per protocol population [PP]) were evaluated as a supportive analysis. The primary and secondary endpoints were analyzed using a maximum likelihood mixed model repeated measure (MMRM). The model included treatment, visit, baseline WOMAC pain score, and treatment-by-visit interaction as fixed effects, and patient as a random effect. Dose-response analysis was conducted by using a contrast statement to the least squares (LS) means on Day 14 between the dose levels of otenaproxesul and placebo. For patients who received rescue medication within 12 hours before an efficacy assessment, the assessments at that visit were disregarded and considered missing. Analysis of the WOMAC pain subscale score, including the MMRM analysis and descriptive summary, were also presented by sex (male, female) in a subgroup analysis.

TXB2 = assay: Pharmacodynamics in Beagle dogs, plasma TXB2; format: in vivo; conditions: 15 mg/kg, Day 1 and Day 4 pre-treatment
Method: The pharmacokinetics of five different formulations of otenaproxesul (formerly ATB-346) were evaluated in Beagle dogs. Five groups of dogs (n=3/group) were orally administered their assigned formulations once daily for four days. Blood samples were taken for a full 24-hour PK profile on Day 1 and on Day 4.
Group 1 was administered crystalline otenaproxesul, Group 2 was administered milled crystalline otenaproxesul, Group 3 was administered micro-milled crystalline otenaproxesul, Group 4 was administered exemplary ASD no. 1 (see Example 7A above) and Group 5 was administered exemplary ASD no. 4 (see Example 7A above). Dose administered was 15 mg/kg (human equivalent dose of 525 mg).
Pharmacodynamic assessment of TXB2 and PGE2 plasma concentrations were assessed on: • Day 1, one hour post treatment • Day 1, 12 hours post treatment • Day 4, pre-treatment • Day 4, one hour post treatment • Day 4, 12 hours post treatment.

thromboxane B2 = assay: Phase 2b study, plasma thromboxane B2; format: in vivo, human
Method: Whole blood samples were taken pre-treatment and on Days 1, 4 and 14 for the measurement of thromboxane B2 as an index of cyclo-oxygenase enzyme inhibition. Thromboxane B2 levels were measured using the Thromboxane B2 Elisa Kit from Cayman Chemical, Ann Arbor Michigan. Instructions provided with the Kit were followed.
Blood samples for measurement of thromboxane concentrations were collected at room temperature in 10 mL red top, no additive Vacutainers. Blood samples were taken approximately 4 hours after dosing and divided into 2 aliquots. The first aliquot (1 mL) was prepared for the measurement of otenaproxesul-derived plasma naproxen concentrations. The second aliquot (2 mL) was further divided into 2 polypropylene tubes for the measurement of plasma thromboxane concentrations.

[3] = Phase 1 SAD/MAD clinical trial, safety and tolerability; format: in vivo, human
Method: Otenaproxesul (crystalline form) was orally administered at a range of doses to healthy volunteers, both as a single dose, and as a daily (or twice-daily) dose for 14 days. Each cohort consisted of 8 subjects, with 6 receiving otenaproxesul and 2 receiving placebo. A total of 8 cohorts were studied in the single-dose study (25 mg, 75 mg, 150 mg, 300 mg, 500 mg, 1000 mg, 1500 mg and 2000 mg), and 3 cohorts in the multiple-dose study (250 and 750 once daily, and 750 mg bid (e.g., 1500 mg/day) for 14 days). All adverse events were recorded, and blood samples were drawn prior to and for at least 72 h after drug administration for measurement of otenaproxesul-derived naproxen levels. Routine cardiovascular, renal, hepatic and hematological biomarkers were monitored, along with clinical signs. Multiple ascending dose studies examined otenaproxesul at doses of 250 and 750 mg once daily, and 750 mg twice daily.

[4] = single dose, oral, 25 mg to 2000 mg, crystalline

COc1ccc2cc([C@H](C)C(=O)Oc3ccc(C(N)=S)cc3)ccc2c1 [crystalline otenaproxesul]
Peak area of methylene blue (H2S release) ([1]; 0 hrs): 1.6 | Peak area of methylene blue (H2S release) ([1]; 0.5 hrs): 2.4 | Peak area of methylene blue (H2S release) ([1]; 1 hr): 2 | Peak area of methylene blue (H2S release) ([1]; 2 hrs): 2.3 | Peak area of methylene blue (H2S release) ([1]; 3 hrs): 1.8 | Peak area of methylene blue (H2S release) ([1]; 4 hrs): 1.9 | Peak area of methylene blue (H2S release) ([1]; 8 hrs): 2.4 | WOMAC pain, stiffness and DPDA subscale scores [2]: clinically and statistically significant improvement | inhibition of TXB2 relative to ASDs (TXB2): inhibition of TXB2 was lower

COc1ccc2cc([C@H](C)C(=O)Oc3ccc(C(N)=S)cc3)ccc2c1 [otenaproxesul, (S)-4-carbamothioylphenyl 2-(6-methoxynaphthalen-2-yl) propanoate]
plasma thromboxane B2 levels (thromboxane B2; 150 mg daily): marked reduction in plasma thromboxane B2 levels | TXB2 levels (thromboxane B2; Day 1, 150, 200, 250 mg): significant suppression of thromboxane B2 levels | inhibition of TXB2 synthesis (thromboxane B2; Day 4, 150, 200, 250 mg): profound inhibition of thromboxane B2 synthesis | inhibition of TXB2 synthesis (thromboxane B2; Day 14, 150, 200, 250 mg): profound inhibition of thromboxane B2 synthesis | tolerability ([3]; all single, once daily administered dose levels): very well tolerated and shown to be safe | gastrointestinal, cardiovascular, renal or hematological findings [3, 4]: nor were there any significant gastrointestinal, cardiovascular renal, or hematological findings | serious adverse events [3, 4]: did not produce any serious adverse events | reduction in pain, stiffness and DPDA ([2]; 150 mg daily): positive reduction in pain, stiffness and DPDA | actual mean change in WOMAC stiffness score, Baseline to Day 14 ([2]; 150 mg once daily, 95% CI −60.3, −36.6): −48.4 mm | decrease in WOMAC DPDA score vs placebo ([2]; 150 mg, Day 14): not statistically significant | decrease in WOMAC pain score vs placebo ([2]; 150 mg, Day 14): not statistically significant | LS mean change in WOMAC stiffness score, Baseline to Day 14 ([2]; 200 mg once daily, 95% CI −62.6, −46.3): −54.4 mm | LS mean change in WOMAC pain score, Baseline to Day 14 ([2]; 200 mg once daily, 95% CI −159.3, −120.6): −139.9 mm | LS mean change in WOMAC DPDA score, Baseline to Day 14 ([2]; 200 mg once daily, 95% CI −502.9, 374.1 (so in the source)): −438.5 mm | LS mean change in WOMAC stiffness score, Baseline to Day 14 ([2]; 250 mg once daily, 95% CI −63.5, −47.8): −55.6 mm | LS mean change in WOMAC pain score, Baseline to Day 14 ([2]; 250 mg once daily, 95% CI −154.0, −116.6): -135 mm | LS mean change in WOMAC DPDA score, Baseline to Day 14 ([2]; 250 mg once daily, 95% CI −475.1, −350.7): −412.9 mm | patients having at least a 30% reduction in WOMAC pain scores ([2]; 250 mg, Day 14): 63.4% | patients having at least a 50% reduction in WOMAC pain scores ([2]; 250 mg, Day 14): 43.5% | WOMAC pain, stiffness and DPDA subscale scores [2]: clinically and statistically significant improvement | decreases in WOMAC stiffness and DPDA scores ([2]; men, 200 mg, Day 14): reached statistical significance | decreases in WOMAC pain, stiffness and DPDA scores vs placebo ([2]; women, 250 mg and 200 mg, Day 14): reached statistical significance
